Here are results for eight compounds from ChEMBL document CHEMBL5212743, “Selectivity Literature for EUbOPEN Chemogenomics Library wave 3” (2023).

Test [1] deals with SRSF protein kinase 2 (Homo sapiens) (UniProt P78362). Put plainly: Selectivity interaction (KinomeScan (DiscoverX)) EUB0000743a SRPK2. The settings on record: Cellular assay (active RAS (KRAS, HRAS,NRAS) in Calu-1 cells ([…])): IC50 = 4120 nM, https://www.sgc-ffm.uni-frankfurt.d, at 1 µM.
Test [2] addresses Megakaryocyte-associated tyrosine-protein kinase (Homo sapiens) (UniProt P42679). Kind of test: Selectivity interaction (KinomeScan (DiscoverX)) EUB0000743a MATK. The settings on record: Cellular assay (active RAS (KRAS, HRAS,NRAS) in Calu-1 cells ([…])): IC50 = 4120 nM, https://www.sgc-ffm.uni-frankfurt.d, at 1 µM.
In test [3] the target is Muscarinic acetylcholine receptor M1 (Homo sapiens, UniProt P11229). Kind of test: Selectivity interaction (GPCR panel (PDSP screen)) EUB0000743a CHRM1.
Test [4] has as its target T1, Gamma-aminobutyric acid receptor subunit alpha-1 (Homo sapiens, UniProt P14867).
T1 sequence (P14867 whole entry): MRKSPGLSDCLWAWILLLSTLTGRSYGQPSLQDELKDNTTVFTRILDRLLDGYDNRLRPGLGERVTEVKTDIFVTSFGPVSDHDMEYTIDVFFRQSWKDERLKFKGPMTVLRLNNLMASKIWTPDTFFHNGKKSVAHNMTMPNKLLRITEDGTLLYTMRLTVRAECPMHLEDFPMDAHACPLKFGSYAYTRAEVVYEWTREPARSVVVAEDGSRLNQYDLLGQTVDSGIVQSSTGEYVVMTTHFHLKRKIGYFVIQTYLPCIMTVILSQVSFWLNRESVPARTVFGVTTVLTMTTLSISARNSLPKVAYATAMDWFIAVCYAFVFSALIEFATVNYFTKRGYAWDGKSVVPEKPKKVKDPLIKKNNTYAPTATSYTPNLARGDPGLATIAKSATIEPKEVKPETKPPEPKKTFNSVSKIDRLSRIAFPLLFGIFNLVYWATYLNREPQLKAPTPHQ
Put plainly: Selectivity interaction (GPCR panel (PDSP screen)) EUB0000587a GABRA1.

Test [5] concerns the target Sigma non-opioid intracellular receptor 1 (Homo sapiens, UniProt Q99720). Put plainly: Selectivity interaction (GPCR panel (PDSP screen)) EUB0000748a SIGMAR1.
Test [6] concerns the target 5-hydroxytryptamine receptor 2B (Homo sapiens, UniProt P41595). Kind of test: Selectivity interaction (GPCR panel (PDSP screen)) EUB0000748a HTR2B.
The target of test [7] is Alpha-2B adrenergic receptor (Homo sapiens, UniProt P18089). Kind of test: Selectivity interaction (GPCR panel (PDSP screen)) EUB0000309b ADRA2B.
Test [8] has as its target T2, Tyrosine-protein kinase Fyn (Homo sapiens, UniProt P06241). Kind of test: Selectivity interaction (Kinase panel (HTRF assay)) EUB0000221b FYN.
The target of test [9] is Histone-lysine N-methyltransferase SMYD3 (Homo sapiens) (UniProt Q9H7B4). Put plainly: Selectivity interaction (Methyltransferase panel) EUB0000221b SMYD3. The settings on record: at 10 µM.
The target of test [10] is Tyrosine-protein kinase HCK (Homo sapiens, UniProt P08631). Put plainly: Selectivity interaction (Z’-LYTE assay) EUB0000638a HCK.
Test [11] deals with Tyrosine-protein kinase Tec (Homo sapiens) (UniProt P42680). The settings on record: at 1 µM.
Test [12] deals with Tyrosine-protein kinase Yes (Homo sapiens, UniProt P07947). Kind of test: Selectivity interaction (Z’-LYTE assay) EUB0000638a YES1.
In test [13] the target is Tyrosine-protein kinase Lck (Homo sapiens, UniProt P06239). Kind of test: Selectivity interaction (Z’-LYTE assay) EUB0000638a LCK.
In test [14] the target is Receptor tyrosine-protein kinase erbB-2 (Homo sapiens) (UniProt P04626). Put plainly: Selectivity interaction (KinomeScan (DiscoverX)) EUB0000638a ERBB2. The settings on record: at 1 µM.
In test [15] the target is Tyrosine-protein kinase Fgr (Homo sapiens, UniProt P09769). Put plainly: Selectivity interaction (Z’-LYTE assay) EUB0000638a FGR.
Test [16] concerns the target Tyrosine-protein kinase Lyn (Homo sapiens, UniProt P07948). Kind of test: Selectivity interaction (Z’-LYTE assay) EUB0000638a LYN.
In test [17] the target is Proto-oncogene tyrosine-protein kinase Src (Homo sapiens, UniProt P12931). Put plainly: Selectivity interaction (Z’-LYTE assay) EUB0000638a SRC.
For test [18], the target named is T2, Tyrosine-protein kinase Fyn. Put plainly: Selectivity interaction (Z’-LYTE assay) EUB0000638a FYN.
For test [19], the target named is Tyrosine-protein kinase Blk (Homo sapiens, UniProt P51451). Put plainly: Selectivity interaction (Z’-LYTE assay) EUB0000638a BLK.
Test [20] has as its target Receptor tyrosine-protein kinase erbB-4 (Homo sapiens) (UniProt Q15303). Put plainly: Selectivity interaction (KinomeScan (DiscoverX)) EUB0000638a ERBB4. The settings on record: at 1 µM.
For test [21], the target named is T3, Myosin-IIIb (Homo sapiens) (UniProt Q8WXR4).
T3 sequence (whole entry): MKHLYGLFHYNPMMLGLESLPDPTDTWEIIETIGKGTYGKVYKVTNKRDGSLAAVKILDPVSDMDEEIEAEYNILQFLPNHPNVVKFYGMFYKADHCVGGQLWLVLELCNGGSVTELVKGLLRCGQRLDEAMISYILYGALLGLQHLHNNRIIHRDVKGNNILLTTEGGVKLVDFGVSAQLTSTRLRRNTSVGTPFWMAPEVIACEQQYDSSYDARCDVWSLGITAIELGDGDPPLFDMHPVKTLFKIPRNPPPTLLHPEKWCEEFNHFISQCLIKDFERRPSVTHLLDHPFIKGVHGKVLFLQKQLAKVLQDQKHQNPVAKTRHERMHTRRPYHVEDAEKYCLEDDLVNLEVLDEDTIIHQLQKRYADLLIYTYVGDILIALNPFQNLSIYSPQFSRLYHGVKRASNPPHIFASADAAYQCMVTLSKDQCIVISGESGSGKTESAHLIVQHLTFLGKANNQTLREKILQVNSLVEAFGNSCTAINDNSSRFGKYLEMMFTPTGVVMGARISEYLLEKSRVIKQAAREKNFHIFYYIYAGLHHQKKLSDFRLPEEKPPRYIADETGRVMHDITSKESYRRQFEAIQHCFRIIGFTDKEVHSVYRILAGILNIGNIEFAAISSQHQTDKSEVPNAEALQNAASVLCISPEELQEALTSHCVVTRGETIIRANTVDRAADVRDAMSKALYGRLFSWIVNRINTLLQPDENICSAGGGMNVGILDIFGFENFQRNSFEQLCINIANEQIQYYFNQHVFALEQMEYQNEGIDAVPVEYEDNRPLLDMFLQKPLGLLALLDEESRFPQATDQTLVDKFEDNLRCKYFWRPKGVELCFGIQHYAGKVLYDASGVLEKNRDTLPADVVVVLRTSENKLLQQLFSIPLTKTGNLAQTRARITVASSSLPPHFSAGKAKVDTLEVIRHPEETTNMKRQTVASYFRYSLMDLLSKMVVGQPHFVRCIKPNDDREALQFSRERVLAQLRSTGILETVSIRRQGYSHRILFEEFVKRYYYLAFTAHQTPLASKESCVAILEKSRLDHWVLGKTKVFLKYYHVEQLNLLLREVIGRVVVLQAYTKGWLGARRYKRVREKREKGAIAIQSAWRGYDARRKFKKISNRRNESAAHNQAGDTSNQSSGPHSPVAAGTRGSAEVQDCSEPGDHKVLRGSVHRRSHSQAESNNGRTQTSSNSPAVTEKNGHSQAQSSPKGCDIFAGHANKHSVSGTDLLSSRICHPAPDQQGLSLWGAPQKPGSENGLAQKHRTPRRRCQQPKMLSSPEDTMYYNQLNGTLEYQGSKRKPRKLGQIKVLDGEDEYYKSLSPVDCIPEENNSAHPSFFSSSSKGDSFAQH
Kind of test: Selectivity interaction (KinomeScan (DiscoverX)) EUB0000548a MYO3B. The settings on record: at 1 µM.

Test [22] concerns the target Receptor-type tyrosine-protein kinase FLT3 (Homo sapiens) (UniProt P36888). Put plainly: Selectivity interaction (KinomeScan (DiscoverX)) EUB0000548a FLT3. The settings on record: at 1 µM.
In test [23] the target is T1, Gamma-aminobutyric acid receptor subunit alpha-1. Kind of test: Selectivity interaction (GPCR panel (PDSP screen)) EUB0000548a GABRA1.
Test [24] addresses T4, Cannabinoid receptor 1 (Homo sapiens, UniProt P21554). Kind of test: Selectivity interaction (CNR1 functional assay (GTPyS binding)) EUB0000291b CNR1.
Test [25] concerns the target Serine/threonine-protein kinase DCLK2 (Homo sapiens) (UniProt Q8N568). Put plainly: Selectivity interaction (KinomeScan (DiscoverX)) EUB0000291b DCLK2. The settings on record: at 1 µM.
Test [26] deals with Mitogen-activated protein kinase kinase kinase 12 (Homo sapiens) (UniProt Q12852). Kind of test: Selectivity interaction (KinomeScan (DiscoverX)) EUB0000291b MAP3K12. The settings on record: at 1 µM.
Test [27] deals with Cyclin-dependent kinase 18 (Homo sapiens) (UniProt Q07002). Kind of test: Selectivity interaction (KinomeScan (DiscoverX)) EUB0000291b CDK18. The settings on record: at 1 µM.
Test [28] has as its target T4, Cannabinoid receptor 1. Put plainly: Selectivity interaction (Eurofins-Panlabs radioligand binding assay) EUB0000291b CNR1. The settings on record: at 10 µM.
The target of test [29] is Cyclin-dependent kinase 11A (Homo sapiens) (UniProt Q9UQ88). Put plainly: Selectivity interaction (KinomeScan (DiscoverX)) EUB0000291b CDK11A. The settings on record: at 1 µM.
For test [30], the target named is Proteinase-activated receptor 4 (Homo sapiens, UniProt Q96RI0). Kind of test: Selectivity interaction (Functional cellular assay (using HEK cells expressing F2RL3)) EUB0000291b F2RL3.
The target in test [31] is Non-receptor tyrosine-protein kinase TYK2 (Homo sapiens, UniProt P29597). Put plainly: Selectivity interaction (KinomeScan (DiscoverX)) EUB0000291b TYK2. The settings on record: at 1 µM.
Test [32] deals with Cyclin-dependent kinase 4 (Homo sapiens) (UniProt P11802). Put plainly: Selectivity interaction (KinomeScan (DiscoverX)) EUB0000291b CDK4. The settings on record: at 1 µM.

T2 sequence (P06241 whole entry): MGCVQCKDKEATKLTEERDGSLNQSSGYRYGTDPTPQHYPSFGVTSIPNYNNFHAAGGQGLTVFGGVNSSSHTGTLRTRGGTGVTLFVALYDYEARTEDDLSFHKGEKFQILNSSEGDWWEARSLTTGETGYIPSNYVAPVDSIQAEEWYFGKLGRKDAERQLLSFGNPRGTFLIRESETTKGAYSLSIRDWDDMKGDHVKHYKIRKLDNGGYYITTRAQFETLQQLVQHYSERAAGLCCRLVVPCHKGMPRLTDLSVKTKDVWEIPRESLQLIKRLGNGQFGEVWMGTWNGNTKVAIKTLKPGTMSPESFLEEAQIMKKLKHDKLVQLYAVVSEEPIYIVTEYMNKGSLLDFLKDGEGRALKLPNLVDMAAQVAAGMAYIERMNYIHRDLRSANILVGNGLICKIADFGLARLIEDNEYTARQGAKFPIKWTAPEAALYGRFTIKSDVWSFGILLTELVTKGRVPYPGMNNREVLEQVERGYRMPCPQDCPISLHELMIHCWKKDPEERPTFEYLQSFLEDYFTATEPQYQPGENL
T4 sequence (P21554 whole entry): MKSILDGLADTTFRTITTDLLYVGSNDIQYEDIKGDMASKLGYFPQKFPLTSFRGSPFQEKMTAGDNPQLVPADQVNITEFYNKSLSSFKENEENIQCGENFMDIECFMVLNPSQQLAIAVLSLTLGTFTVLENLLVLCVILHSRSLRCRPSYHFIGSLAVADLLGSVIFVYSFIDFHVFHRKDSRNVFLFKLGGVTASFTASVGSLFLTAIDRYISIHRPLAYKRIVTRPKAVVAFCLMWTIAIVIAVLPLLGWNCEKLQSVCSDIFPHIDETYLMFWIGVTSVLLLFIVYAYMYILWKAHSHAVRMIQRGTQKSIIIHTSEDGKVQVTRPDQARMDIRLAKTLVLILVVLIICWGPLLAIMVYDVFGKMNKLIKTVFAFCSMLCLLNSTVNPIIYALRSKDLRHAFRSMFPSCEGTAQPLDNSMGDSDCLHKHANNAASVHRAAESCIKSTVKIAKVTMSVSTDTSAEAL
Sequence of Muscarinic acetylcholine receptor M1 (P11229 whole entry): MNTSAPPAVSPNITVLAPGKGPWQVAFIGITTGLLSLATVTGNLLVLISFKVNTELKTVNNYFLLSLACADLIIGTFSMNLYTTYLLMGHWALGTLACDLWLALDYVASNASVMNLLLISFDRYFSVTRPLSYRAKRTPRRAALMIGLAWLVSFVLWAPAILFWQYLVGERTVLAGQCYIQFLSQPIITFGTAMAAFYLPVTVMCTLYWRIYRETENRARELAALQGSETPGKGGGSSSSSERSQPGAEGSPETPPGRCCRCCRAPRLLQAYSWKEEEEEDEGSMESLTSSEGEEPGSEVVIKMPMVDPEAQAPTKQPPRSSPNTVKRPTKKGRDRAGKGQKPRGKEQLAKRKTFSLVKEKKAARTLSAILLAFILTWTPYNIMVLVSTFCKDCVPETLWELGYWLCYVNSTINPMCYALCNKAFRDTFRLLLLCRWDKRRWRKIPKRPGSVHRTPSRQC
Sequence of Megakaryocyte-associated tyrosine-protein kinase (Homo sapiens) (P42679 whole entry): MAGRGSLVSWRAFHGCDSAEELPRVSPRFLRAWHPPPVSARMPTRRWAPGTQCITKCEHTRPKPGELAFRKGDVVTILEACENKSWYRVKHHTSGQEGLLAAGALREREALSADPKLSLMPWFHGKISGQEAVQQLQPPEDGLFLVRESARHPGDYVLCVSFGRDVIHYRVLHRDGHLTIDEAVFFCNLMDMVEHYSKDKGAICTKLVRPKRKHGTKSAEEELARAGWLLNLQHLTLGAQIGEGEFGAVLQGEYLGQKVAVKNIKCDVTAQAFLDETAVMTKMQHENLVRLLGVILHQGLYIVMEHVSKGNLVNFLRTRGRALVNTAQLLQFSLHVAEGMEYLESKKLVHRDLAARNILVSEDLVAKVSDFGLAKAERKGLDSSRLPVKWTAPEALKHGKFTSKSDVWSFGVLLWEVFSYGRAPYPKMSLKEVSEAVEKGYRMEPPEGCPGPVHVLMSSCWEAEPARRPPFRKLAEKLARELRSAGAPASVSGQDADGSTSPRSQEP
Sequence of Cyclin-dependent kinase 18 (Homo sapiens) (Q07002 whole entry): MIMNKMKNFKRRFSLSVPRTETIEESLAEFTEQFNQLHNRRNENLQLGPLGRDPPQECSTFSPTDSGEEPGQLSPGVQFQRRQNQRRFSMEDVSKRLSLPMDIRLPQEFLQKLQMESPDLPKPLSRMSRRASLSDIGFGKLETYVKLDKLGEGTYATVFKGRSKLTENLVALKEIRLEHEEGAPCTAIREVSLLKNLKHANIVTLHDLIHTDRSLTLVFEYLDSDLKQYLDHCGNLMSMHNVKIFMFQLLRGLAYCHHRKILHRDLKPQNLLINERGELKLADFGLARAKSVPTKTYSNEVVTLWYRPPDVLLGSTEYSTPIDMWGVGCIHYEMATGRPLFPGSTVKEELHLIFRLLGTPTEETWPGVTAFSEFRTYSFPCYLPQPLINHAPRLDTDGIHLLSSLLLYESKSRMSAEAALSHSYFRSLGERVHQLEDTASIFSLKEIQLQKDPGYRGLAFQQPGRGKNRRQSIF
Sequence of Serine/threonine-protein kinase DCLK2 (Homo sapiens) (Q8N568 whole entry): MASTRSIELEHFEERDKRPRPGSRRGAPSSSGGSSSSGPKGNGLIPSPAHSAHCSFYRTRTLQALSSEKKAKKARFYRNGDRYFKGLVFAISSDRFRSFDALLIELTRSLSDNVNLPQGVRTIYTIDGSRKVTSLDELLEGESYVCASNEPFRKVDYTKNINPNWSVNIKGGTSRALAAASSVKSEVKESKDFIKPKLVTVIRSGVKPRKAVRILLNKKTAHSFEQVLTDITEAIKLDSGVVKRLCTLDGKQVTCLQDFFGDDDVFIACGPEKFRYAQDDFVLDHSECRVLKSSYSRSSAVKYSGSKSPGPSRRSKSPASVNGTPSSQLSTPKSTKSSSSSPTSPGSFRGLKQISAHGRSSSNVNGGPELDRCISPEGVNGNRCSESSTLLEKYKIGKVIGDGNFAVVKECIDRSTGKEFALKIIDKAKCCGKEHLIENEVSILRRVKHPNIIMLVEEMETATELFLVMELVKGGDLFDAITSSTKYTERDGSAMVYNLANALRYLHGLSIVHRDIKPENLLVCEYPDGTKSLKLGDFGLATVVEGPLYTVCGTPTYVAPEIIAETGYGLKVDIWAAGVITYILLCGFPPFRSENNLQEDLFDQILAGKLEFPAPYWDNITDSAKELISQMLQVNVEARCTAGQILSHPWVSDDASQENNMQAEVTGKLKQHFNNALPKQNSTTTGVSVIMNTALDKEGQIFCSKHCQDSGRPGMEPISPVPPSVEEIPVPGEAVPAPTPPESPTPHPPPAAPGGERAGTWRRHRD
Sequence of Cyclin-dependent kinase 11A (Homo sapiens) (Q9UQ88 whole entry): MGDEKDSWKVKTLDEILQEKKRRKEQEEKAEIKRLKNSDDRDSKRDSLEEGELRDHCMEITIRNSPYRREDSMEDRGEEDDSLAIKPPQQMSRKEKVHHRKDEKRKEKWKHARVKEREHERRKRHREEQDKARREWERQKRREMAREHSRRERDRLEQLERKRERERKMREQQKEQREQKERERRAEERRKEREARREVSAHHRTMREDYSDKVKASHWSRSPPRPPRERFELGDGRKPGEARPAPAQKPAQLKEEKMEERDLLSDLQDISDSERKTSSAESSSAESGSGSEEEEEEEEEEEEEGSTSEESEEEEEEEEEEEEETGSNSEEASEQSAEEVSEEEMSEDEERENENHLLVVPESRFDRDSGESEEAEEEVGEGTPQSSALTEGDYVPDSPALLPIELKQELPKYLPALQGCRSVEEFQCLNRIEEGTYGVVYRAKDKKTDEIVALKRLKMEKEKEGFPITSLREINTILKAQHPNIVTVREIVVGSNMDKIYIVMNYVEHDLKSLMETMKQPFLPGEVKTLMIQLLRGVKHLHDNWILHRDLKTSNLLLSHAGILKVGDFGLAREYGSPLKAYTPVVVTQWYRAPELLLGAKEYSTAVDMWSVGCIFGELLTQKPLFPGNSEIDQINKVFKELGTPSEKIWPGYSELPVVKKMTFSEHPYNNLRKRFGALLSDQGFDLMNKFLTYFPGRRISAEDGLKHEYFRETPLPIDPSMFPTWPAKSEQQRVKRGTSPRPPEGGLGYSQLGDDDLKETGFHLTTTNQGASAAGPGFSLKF
Sequence of Receptor-type tyrosine-protein kinase FLT3 (Homo sapiens) (P36888 whole entry): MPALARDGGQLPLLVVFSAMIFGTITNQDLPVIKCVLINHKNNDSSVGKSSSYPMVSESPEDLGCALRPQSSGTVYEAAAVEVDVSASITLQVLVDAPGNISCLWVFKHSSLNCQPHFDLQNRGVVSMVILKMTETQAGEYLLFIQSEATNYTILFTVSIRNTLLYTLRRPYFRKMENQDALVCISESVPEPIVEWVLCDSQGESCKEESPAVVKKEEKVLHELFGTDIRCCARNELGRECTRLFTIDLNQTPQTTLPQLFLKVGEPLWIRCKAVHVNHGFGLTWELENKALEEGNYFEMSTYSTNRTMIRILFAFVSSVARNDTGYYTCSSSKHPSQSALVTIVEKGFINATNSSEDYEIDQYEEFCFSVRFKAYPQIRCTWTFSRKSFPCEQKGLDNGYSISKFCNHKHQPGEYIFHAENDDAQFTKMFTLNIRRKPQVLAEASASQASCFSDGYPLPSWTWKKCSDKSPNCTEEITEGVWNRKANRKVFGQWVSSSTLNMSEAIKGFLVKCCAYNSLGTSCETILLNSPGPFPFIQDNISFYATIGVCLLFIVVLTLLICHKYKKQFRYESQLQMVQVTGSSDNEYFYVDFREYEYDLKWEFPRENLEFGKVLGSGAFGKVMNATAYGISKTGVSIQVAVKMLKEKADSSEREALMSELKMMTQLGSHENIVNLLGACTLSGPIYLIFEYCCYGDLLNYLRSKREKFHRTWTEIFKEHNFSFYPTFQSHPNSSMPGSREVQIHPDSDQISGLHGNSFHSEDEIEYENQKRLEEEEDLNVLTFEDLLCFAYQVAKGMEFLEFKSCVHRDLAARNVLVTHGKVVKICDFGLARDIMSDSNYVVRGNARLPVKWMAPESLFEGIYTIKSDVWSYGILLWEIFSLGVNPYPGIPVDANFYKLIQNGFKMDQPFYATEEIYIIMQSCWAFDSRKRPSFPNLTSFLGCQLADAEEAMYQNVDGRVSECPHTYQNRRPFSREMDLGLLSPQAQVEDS

As for `CNCc1ccccc1-c1csc([C@H](C)Nc2nc(C)nc3cc(OC)c(OC)cc23)c1` [BAY-294], the results for the % of control in [1] and in test [2] were 52% and 51%, respectively. This compound came in with an inhibition constant Ki in test [3] of 0.614 µM.
The compound `CCNC(=O)c1cc2c(N3CCOC[C@@H]3C)ccnc2n1C` came in with a Ki in [4] of 0.224 µM.
In the case of `Cn1c(-c2csc(C3CCN(CC4=NC5N=CC=CC5N4)CC3)n2)nc2ccccc21` (configuration not stated) [BAY-070], the Ki in [5] worked out at 1.27 µM; in test [6], 1.53 µM.
`NS(=O)(=O)c1cc(NC(=O)Cc2ccccc2)ccc1Oc1cccc(Cl)c1` [BAY-1797]: in test [7], the affinity corresponds to a Ki of 4.58 µM.
Regarding `C[C@H]1CC(=O)Nc2cc(C(=O)NCCC3CC3)ccc2N1C(=O)N1CC2CC2C1` (some centres not stated), inhibition in [8] was half-maximal at 5.71 µM (IC50). Also, in [9], the % of activity remaining came to 40%.
Consider `CC#CC(=O)N1CCC[C@H]1c1nc(-c2ccc(C(=O)Nc3ccccn3)cc2)c2c(N)nccn12` [ACALABRUTINIB], for which the IC50 in test [10], in test [12], in [13], in test [15], in test [16] and in test [17] was over 10 µM throughout. Also, the IC50 in test [18] and in test [19] was over 10 µM throughout. The results for the % of control in [11], in test [14] and in test [20] were 6.4%, 2.1% and 4.3%, respectively.
With `NS(=O)(=O)c1cc(NC(=O)C2(c3ccccc3Cl)CC2)ccc1Oc1cccc(Cl)c1` [BAY-207], the % of control in test [21] came out at 29%; in test [22], 32%. In addition, in [23], the Ki is 0.25 µM.
Consider `O=C(N1CCS(=O)(=O)CC1)N1C[C@H](c2ccc(OC(F)(F)F)cc2)C[C@H](c2nc(C3CC3)no2)C1` [BAY-386], for which the IC50 in [24] is 10.6 µM; in test [30], over 10 µM. The % of control in test [25] came out at 0%; in test [26] it was 0%; in [27], 0%; in [29], 0%; in [31] it was 53%; in [32], 18%. This compound also returned a % of inhibition in test [28] of 88%.
